The term EC50 denotes the concentration needed to bring the measured effect to its halfway point.

Read-outs that look alike come from different tables or passages of the source.

Here are results for 23 compounds from patent US11702404B2, “GLP-1R modulating compounds” (priority 2019, dated 2023).

One data set deals with GLP-1R (Homo sapiens, UniProt P43220). Nature of the data set: GLP-1R activation: cAMP increase in CHO cells stably expressing GLP-1R. The data set is classed as cell-based.
Data set [1] is described as follows: Microsomal stability, human liver microsomes (predicted hepatic clearance). The following applies: predicted from in vitro microsomal stability data.
Where [2] appears, read: cAMP increase, CHO cells stably expressing GLP-1R, 10 point dose response, 30 minutes incubation, read-out: EC50.

Chain of GLP-1R (P43220 24-463): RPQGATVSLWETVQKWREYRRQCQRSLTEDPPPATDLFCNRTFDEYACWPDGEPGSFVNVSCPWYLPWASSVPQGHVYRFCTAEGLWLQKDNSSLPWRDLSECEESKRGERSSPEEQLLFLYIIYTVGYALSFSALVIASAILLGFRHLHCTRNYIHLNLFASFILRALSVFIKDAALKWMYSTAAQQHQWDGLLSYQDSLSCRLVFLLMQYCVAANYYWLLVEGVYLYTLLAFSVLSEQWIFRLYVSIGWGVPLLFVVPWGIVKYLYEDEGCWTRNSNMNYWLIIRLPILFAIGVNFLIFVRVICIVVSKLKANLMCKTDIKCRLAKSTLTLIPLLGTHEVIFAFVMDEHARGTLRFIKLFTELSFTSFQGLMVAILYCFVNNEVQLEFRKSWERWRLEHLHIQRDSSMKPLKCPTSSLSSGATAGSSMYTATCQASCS

Consider `N#Cc1ccc(COc2cccc(-c3ccc(Cc4nc5ccc(C(=O)O)cc5n4CC4(C#N)CC4)c(F)c3)n2)c(F)c1` [Example 13, 2-(4-(6-((4-cyano-2-fluorobenzyl)oxy)pyridin-2-yl)-2-fluorobenzyl)-1-((1-cyanocyclopropyl)methyl)-1H-benzo[d]imidazole-6-carboxylic acid], for which the EC50 at GLP-1R (setting [2]) was determined as 2.7 nM. For the same compound, the “Predicted Hepatic Clearance (Pred. Cl.)” value in data set [1] was 4.17 mL/min/kg.

As to `CC(C)(C#N)Cn1c(Cc2ccc(-c3cccc(OCc4ccc(C#N)cc4F)n3)cc2F)nc2ccc(C(=O)O)cc21` [Example 14, 2-(4-(6-((4-cyano-2-fluorobenzyl)oxy)pyridin-2-yl)-2-fluorobenzyl)-1-(2-cyano-2-methylpropyl)-1H-benzo[d]imidazole-6-carboxylic acid], the EC50 at GLP-1R (setting [2]) is 3.14 nM. Further, the “Predicted Hepatic Clearance (Pred. Cl.)” value in data set [1] is 5 mL/min/kg.

Take `N#CCC1(Cn2c(Cc3ccc(-c4cccc(OCc5ccc(C#N)cc5F)n4)cc3F)nc3ccc(C(=O)O)cc32)CC1` [Example 16, 2-(4-(6-((4-cyano-2-fluorobenzyl)oxy)pyridin-2-yl)-2-fluorobenzyl)-1-((1-(cyanomethyl)cyclopropyl)methyl)-1H-benzo[d]imidazole-6-carboxylic acid]: the EC50 on GLP-1R (setting [2]) was determined as 0.55 nM. The “Predicted Hepatic Clearance (Pred. Cl.)” value in data set [1] is 5.5 mL/min/kg.

In the case of `N#Cc1ccc(COc2cccc(-c3ccc(Cc4nc5ccc(C(=O)O)cc5n4CC4CCS4(=O)=O)c(F)c3)n2)c(F)c1` (stereo not shown) [Example 17, 2-(4-(6-((4-cyano-2-fluorobenzyl)oxy)pyridin-2-yl)-2-fluorobenzyl)-1-((1,1-dioxidothietan-2-yl)methyl)-1H-benzo[d]imidazole-6-carboxylic acid], the EC50 at GLP-1R (setting [2]) was determined as 11 nM. Further, the “Predicted Hepatic Clearance (Pred. Cl.)” value in data set [1] was 2.67 mL/min/kg.

For the compound `CC1(Cn2c(Cc3ccc(-c4cccc(OCc5ccc(C#N)cc5F)n4)cc3F)nc3ccc(C(=O)O)nc32)CC1` [Example 18, 2-(4-(6-((4-cyano-2-fluorobenzyl)oxy)pyridin-2-yl)-2-fluorobenzyl)-3-((1-methylcyclopropyl)methyl)-3H-imidazo[4,5-b]pyridine-5-carboxylic acid], the EC50 at GLP-1R (setting [2]) was found to be 3.6 nM. Further, in data set [1], the “Predicted Hepatic Clearance (Pred. Cl.)” value was 2.5 mL/min/kg.

For `COCCn1c(Cc2ccc(-c3cccc(OCc4ccc(C#N)cc4F)n3)c(C)c2)nc2ccc(C(=O)O)cc21` [Example 20, 2-{[4-[6-[(4-cyano-2-fluoro-phenyl)methoxy]-2-pyridyl]-3-methyl-phenyl]methyl}-3-(2-methoxyethyl)benzimidazole-5-carboxylic acid], at GLP-1R (EC50 (nM)), the EC50 turned out to be 24.1 nM. Moreover, in data set [1], the “Predicted Hepatic Clearance (Pred. Cl.)” value was 2.33 mL/min/kg.

On GLP-1R (EC50 (nM)), `COCCn1c(Cc2ccc(-c3cccc(OCc4ccc(C#N)cc4F)n3)c(C)c2)nc2ccc(C(=O)O)cc21` [Example 21, 2-(4-(6-((4-cyano-2-fluorobenzyl)oxy)pyridin-2-yl)-3-methylbenzyl)-1-(2-methoxyethyl)-1H-benzo[d]imidazole-6-carboxylic acid] showed an EC50 of 70.9 nM. Moreover, in data set [1], the “Predicted Hepatic Clearance (Pred. Cl.)” value was less than 1.83 mL/min/kg.

On to `COCCn1c(Cc2ccc(-c3cccc(OCc4ccc(C#N)cc4F)n3)cc2C#N)nc2ccc(C(=O)O)cc21` [Example 22, 2-(2-cyano-4-(6-((4-cyano-2-fluorobenzyl)oxy)pyridin-2-yl)benzyl)-1-(2-methoxyethyl)-1H-benzo[d]imidazole-6-carboxylic acid], for which the EC50 at GLP-1R (setting [2]) amounted to 0.78 nM. Moreover, the “Predicted Hepatic Clearance (Pred. Cl.)” value in data set [1] was 3 mL/min/kg.

In the case of `COCCn1c(Cc2ccc(-c3nccc(OCc4ccc(C#N)cc4F)n3)cc2F)nc2ccc(C(=O)O)cc21` [Example 25, 2-{[4-[4-[(4-cyano-2-fluoro-phenyl)methoxy]pyrimidin-2-yl]-2-fluoro-phenyl]methyl}-3-(2-methoxyethyl)benzimidazole-5-carboxylic acid], the EC50 on GLP-1R (setting [2]) was found to be 25.9 nM. In data set [1], the “Predicted Hepatic Clearance (Pred. Cl.)” value was 7.33 mL/min/kg.

On to `COCCn1c(Cc2ccc(-c3csc(OCc4ccc(C#N)cc4F)n3)cc2F)nc2ccc(C(=O)O)cc21` [Example 26, 2-(4-(2-((4-cyano-2-fluorobenzyl)oxy)thiazol-4-yl)-2-fluorobenzyl)-1-(2-methoxyethyl)-1H-benzo[d]imidazole-6-carboxylic acid], for which, at GLP-1R (setting [2]), the EC50 came out at 115 nM. Moreover, in data set [1], the “Predicted Hepatic Clearance (Pred. Cl.)” value was 4.67 mL/min/kg.

Take `COCCn1c(Cc2ccc(-c3cc(F)cc(OCc4ccc(C#N)cc4F)c3)cc2F)nc2ccc(C(=O)O)cc21` [Example 27, 2-((3′-((4-cyano-2-fluorobenzyl)oxy)-3,5′-difluoro-[1,1′-biphenyl]-4-yl)methyl)-1-(2-methoxyethyl)-1H-benzop[d]imidazole-6-carboxylic acid]: the EC50 at GLP-1R (setting [2]) amounted to 78 nM. The “Predicted Hepatic Clearance (Pred. Cl.)” value in data set [1] is 2.5 mL/min/kg.

Consider `COCCn1c(Cc2ccc(-c3cc(OCc4ccc(C#N)cc4F)ccc3F)cc2F)nc2ccc(C(=O)O)cc21` [Example 28, 2-((5′-((4-cyano-2-fluorobenzyl)oxy)-2′,3-difluoro-[1,1′-biphenyl]-4-yl)methyl)-1-(2-methoxyethyl)-1H-benzo[d]imidazole-6-carboxylic acid], for which the 50% effective concentration (EC50) on GLP-1R (setting [2]) turned out to be 94 nM. Besides, the “Predicted Hepatic Clearance (Pred. Cl.)” value in data set [1] was 3.17 mL/min/kg.

Consider `COCCn1c(Cc2ccc(-c3cc(C#N)cc(OCc4ccc(C#N)cc4F)c3)cc2F)nc2ccc(C(=O)O)cc21` [Example 29, 2-((3′-cyano-5′-((4-cyano-2-fluorobenzyl)oxy)-3-fluoro-[1,1′-biphenyl]-4-yl)methyl)-1-(2-methoxyethyl)-1H-benzo[d]imidazole-6-carboxylic acid], for which, on GLP-1R (setting [2]), the 50% effective concentration (EC50) was 57 nM. Also, the “Predicted Hepatic Clearance (Pred. Cl.)” value in data set [1] was 5.17 mL/min/kg.

On to `COCCn1c(Cc2ccc(-c3cc(OC)cc(OCc4ccc(C#N)cc4F)c3)cc2F)nc2ccc(C(=O)O)cc21` [Example 30, 2-((3′-((4-cyano-2-fluorobenzyl)oxy)-3-fluoro-5′-methoxy-[1,1′-biphenyl]-4-yl)methyl)-1-(2-methoxyethyl)-1H-benzo[d]imidazole-6-carboxylic acid], for which the EC50 on GLP-1R (setting [2]) came to 1350 nM. The “Predicted Hepatic Clearance (Pred. Cl.)” value in data set [1] is 4.67 mL/min/kg.

`COCCn1c(Cc2ccc(-c3cc(C)cc(OCc4ccc(C#N)cc4F)n3)cc2F)nc2ccc(C(=O)O)cc21` [Example 31, 2-(4-(6-((4-cyano-2-fluorobenzyl)oxy)-4-methylpyridin-2-yl)-2-fluorobenzyl)-1-(2-methoxyethyl)-1H-benzo[d]imidazole-6-carboxylic acid]: the EC50 on GLP-1R (setting [2]) amounted to 32 nM. The “Predicted Hepatic Clearance (Pred. Cl.)” value in data set [1] is 4.67 mL/min/kg.

On to `COCCn1c(C2(c3ccc(-c4cccc(OCc5ccc(C#N)cc5F)n4)cc3)CC2)nc2ccc(C(=O)O)cc21` [Example 32, 2-(1-(4-(6-((4-cyano-2-fluorobenzyl)oxy)pyridin-2-yl)phenyl)cyclopropyl)-1-(2-methoxyethyl)-1H-benzo[d]imidazole-6-carboxylic acid], for which the EC50 at GLP-1R (setting [2]) was more than 1000 nM. Moreover, in data set [1], the “Predicted Hepatic Clearance (Pred. Cl.)” value was 7.83 mL/min/kg.

Consider `COCCn1c(Cc2ccc(-c3cccc(OCc4ccc(C#N)cc4F)n3)cc2OC)nc2ccc(C(=O)O)cc21` [Example 33, 2-(4-(6-((4-cyano-2-fluorobenzyl)oxy)pyridin-2-yl)-2-methoxybenzyl)-1-(2-methoxyethyl)-1H-benzo[d]imidazole-6-carboxylic acid], for which, on GLP-1R (setting [2]), the EC50 stood at 26.9 nM. For the same compound, in data set [1], the “Predicted Hepatic Clearance (Pred. Cl.)” value was 5 mL/min/kg.

For the compound `COCCn1c(Cc2ccc(-c3cccc(OCc4ccc(C#N)cc4F)n3)c(C(F)(F)F)c2)nc2ccc(C(=O)O)cc21` [Example 34, 2-(4-(6-((4-cyano-2-fluorobenzyl)oxy)pyridin-2-yl)-3-(trifluoromethyl)benzyl)-1-(2-methoxyethyl)-1H-benzo[d]imidazole-carboxylic acid], the EC50 on GLP-1R (setting [2]) came out at 2180 nM. For the same compound, in data set [1], the “Predicted Hepatic Clearance (Pred. Cl.)” value is 9.83 mL/min/kg.

As to `COCCn1c(Cc2ccc(-c3cccc(OCc4ccc(C#N)cc4F)n3)c3ccccc23)nc2ccc(C(=O)O)cc21` [Example 35, 2-((4-(6-((4-cyano-2-fluorobenzyl)oxy)pyridin-2-yl)naphthalen-1-yl)methyl)-1-(2-methoxyethyl)-1H-benzo[d]imidazole-carboxylic acid], at GLP-1R (setting [2]), the EC50 was 1000 nM. Moreover, the “Predicted Hepatic Clearance (Pred. Cl.)” value in data set [1] was 5.17 mL/min/kg.

In the case of `COCCn1c(C2CCc3cc(-c4cccc(OCc5ccc(C#N)cc5F)n4)ccc32)nc2ccc(C(=O)O)cc21` (stereo not shown) [Example 36, 2-(5-(6-((4-cyano-2-fluorobenzyl)oxy)pyridin-2-yl)-2,3-dihydro-1H-inden-1-yl)-1-(2-methoxyethyl)-1H-benzo[d]imidazole-carboxylic acid], the 50% effective concentration (EC50) on GLP-1R (setting [2]) came out at 107 nM. Besides, in data set [1], the “Predicted Hepatic Clearance (Pred. Cl.)” value is 4 mL/min/kg.

As for `COCCn1c(C2OCCc3cc(-c4cccc(OCc5ccc(C#N)cc5F)n4)ccc32)nc2ccc(C(=O)O)cc21` (stereo not shown) [Example 37, 2-(6-(6-((4-cyano-2-fluorobenzyl)oxy)pyridin-2-yl)isochroman-1-yl)-1-(2-methoxyethyl)-1H-benzo[d]imidazole-carboxylic acid], the EC50 at GLP-1R (setting [2]) amounted to 927 nM. Also, the “Predicted Hepatic Clearance (Pred. Cl.)” value in data set [1] was 8.67 mL/min/kg.

Consider `COCCn1c(Cc2ccc(-c3cccc(OCc4ccc(C#N)cc4F)n3)cc2Cl)nc2ccc(C(=O)O)cc21` [Example 38, 2-(2-chloro-4-(6-((4-cyano-2-fluorobenzyl)oxy)pyridin-2-yl)benzyl)-1-(2-methoxyethyl)-1H-benzo[d]imidazole-carboxylic acid], for which, at GLP-1R (setting [2]), the EC50 came to 6.18 nM. For the same compound, the “Predicted Hepatic Clearance (Pred. Cl.)” value in data set [1] is 5.33 mL/min/kg.

With `COCCn1c(Cc2c(F)cc(-c3cccc(OCc4ccc(C#N)cc4F)n3)cc2F)nc2ccc(C(=O)O)cc21` [Example 39, 2-(4-(6-((4-cyano-2-fluorobenzyl)oxy)pyridin-2-yl)-2,6-difluorobenzyl)-1-(2-methoxyethyl)-1H-benzo[d]imidazole-carboxylic acid], the EC50 at GLP-1R (setting [2]) was 8.79 nM. Besides, the “Predicted Hepatic Clearance (Pred. Cl.)” value in data set [1] is less than 1.83 mL/min/kg.
